Measurements taken from patent publication US20220402932A1, “Compounds Constituting C20-Modified Salinomycin Derivatives, a Method for Obtaining the Same, a Composition Containing the Same, a Use of Said Compounds and a Method for Obtaining an Intermediate Product” (FILECLO SP. Z O.O., priority 2020, published 2022).

Columns and labels:
[1] = system: advanced head, neck, breast and ovarian cancer; details: small group of patients with advanced head; cited from earlier work
[2] = system: cancer cell lines B16-F0, Hs294T, LoVo, LoVo/DX, MCF-7, MV-4-11; test: In vitro cytotoxicity tests (SRB / MTT) on cancer cell lines; type: cell-based, human and murine; details: versus salinomycin; from Table 3 IC50 data; 72 hours incubation
Protocol: (§1) The solvent for further dilutions was a culture medium.
(§2) The experiments were repeated at least 3 times.
(§3) After 4 hours of incubation at 37° C., 80 μL of lysis buffer was added to each well.

[3] = system: MV-4-11 (human biphenotypic leukaemia); test: In vitro cytotoxicity test, MTT assay, MV-4-11; type: cell-based; details: 72 hours incubation
Protocol: as §1, §2, §3

| SMILES | effect on cancer progression [1] | side effects [1] | anti-proliferative effect compared to the parent compound [2] | effect against biphenotypic leukaemia cells [3] |
| --- | --- | --- | --- | --- |
| CC[C@@H](C(=O)[C@@H](C)[C@@H](O)[C@H](C)[C@@H]1O[C@@H]([C@@H](CC)C(=O)O)CC[C@@H]1C)[C@H]1O[C@]2(C=C[C@@H](O)[C@]3(CC[C@@](C)([C@H]4CC[C@](O)(CC)[C@H](C)O4)O3)O2)[C@H](C)C[C@@H]1C [Salinomycin] | inhibition of cancer progression | no acute side effects |  |  |
| CC[C@@H](C(=O)[C@@H](C)[C@@H](O)[C@H](C)[C@@H]1O[C@@H]([C@@H](CC)C(=O)O)CC[C@@H]1C)[C@H]1O[C@]2(C=C[C@@H](NC(=O)C(C)C)[C@]3(CC[C@@](C)([C@H]4CC[C@](O)(CC)[C@H](C)O4)O3)O2)[C@H](C)C[C@@H]1C [formula (10), C20-dehydroxy-C20-aminosalinomycin N-isobutyramide] |  |  | several times more potent |  |
| CC[C@@H](C(=O)[C@@H](C)[C@@H](O)[C@H](C)[C@@H]1O[C@@H]([C@@H](CC)C(=O)O)CC[C@@H]1C)[C@H]1O[C@]2(C=C[C@@H](NC(=O)c3ccccc3)[C@]3(CC[C@@](C)([C@H]4CC[C@](O)(CC)[C@H](C)O4)O3)O2)[C@H](C)C[C@@H]1C [formula (15), C20-dehydroxy-C20-aminosalinomycin N-benzamide] |  |  | several times more potent |  |
| C#CCOC(=O)N[C@@H]1C=C[C@]2(O[C@H]([C@@H](CC)C(=O)[C@@H](C)[C@@H](O)[C@H](C)[C@@H]3O[C@@H]([C@@H](CC)C(=O)O)CC[C@@H]3C)[C@@H](C)C[C@H]2C)O[C@@]12CC[C@@](C)([C@H]1CC[C@](O)(CC)[C@H](C)O1)O2 [formula (22), C20-dehydroxy-C20-aminosalinomycin N-propargylcarbamate] |  |  | tens of times more potent |  |
| CC[C@@H](C(=O)[C@@H](C)[C@@H](O)[C@H](C)[C@@H]1O[C@@H]([C@@H](CC)C(=O)[O-])CC[C@@H]1C)[C@H]1O[C@]2(C=C[C@@H](NC(=O)NCCCCl)[C@]3(CC[C@@](C)([C@H]4CC[C@](O)(CC)[C@H](C)O4)O3)O2)[C@H](C)C[C@@H]1C.[Na+] [formula (25), 3-chloropropylurea of C20-dehydroxy-C20-aminosalinomycin] |  |  | tens of times more potent | preferred effect |
